Laboratory results: patent US20250281457A1, “TREATMENT OR PREVENTION OF DENGUE VIRAL INFECTION” (Janssen Pharmaceuticals, Inc., priority 2022, published 2025)
Marks after values point to notes of the source that are not given here.

Test: Safety and tolerability, TEAEs (Example 2)
Format: in vivo, human
Method: Safety and tolerability of Compound (a) was evaluated throughout the study, as described in Example 1.

In the case of `COc1cc(NC(C(=O)c2c[nH]c3ccc(OC(F)(F)F)cc23)c2ccc(Cl)cc2OC)cc(S(C)(=O)=O)c1` (stereo not shown) [Compound (a)], the “at least 1 TEAE reported” value (Panel 3, Treatment D (800 mg, fasted)) is reported as 9 (69.2%) # Participants (%), the “at least 1 TEAE reported” value (Panel 3, Treatment E (800 mg, fed, standardized breakfast)) is reported as 6 (40.0%) # Participants (%) and the “at least 1 TEAE reported” value (Panel 4, Treatment F (200 mg, fasted)) is reported as 6 (46.2%) # Participants (%). For the same compound, the “at least 1 TEAE reported” value (Panel 4, Treatment G (200 mg, fed, standardized breakfast)) was 7 (58.3%) # Participants (%), the “at least 1 TEAE reported” value (Panel 5, Treatment H (50 mg, fasted)) was 5 (38.5%) # Participants (%) and the “at least 1 TEAE reported” value (Panel 5, Treatment I (50 mg, fed, standardized breakfast)) was 8 (66.7%) # Participants (%). For the same compound, the “Safety and tolerability, overall conclusion” value (single doses 50-800 mg SF2a/b, fasted or fed) was “safe and well tolerated”.
